Experimental data reported in US20210251237A1, “PLATFORM FOR DEVELOPING SOIL-BORNE PLANT PATHOGEN INHIBITING MICROBIAL CONSORTIA” (priority 2018, published 2021).
Like-named read-outs stand apart in the source and are kept apart here. Marks after values point to notes of the source that are not given here.

Tests used:
Rhizoctonia solani = assay: Pathogen suppressive activity plate assay (zone of inhibition); assay type: cell-based; conditions: for zone of inhibition: Table 1, pathogen isolate P6; for mean inhibitory zone size: Table 4
Sclerotinia sclerotiorum = assay: as above; assay type: cell-based; conditions: for zone of inhibition: Table 1, pathogen isolate P19; for mean inhibitory zone size: Table 4
Fusarium oxysporum = assay: as above; assay type: cell-based; conditions: for zone of inhibition: Table 1; for mean inhibitory zone size: Table 4
Fusarium graminearum = assay type: cell-based; parameters: key to pathogen suppression (symbol): + refers to instances where there is some evidence for inhibition immediately over the surface of the dotted strain, but no clear inhibition zone beyond the dotted colony's edge; conditions: for zone of inhibition: Table 1; for pathogen suppression (symbol) / mean inhibitory zone size: Table 4
Phytophthora medicaginis = assay: Pathogen suppressive activity plate assay (zone of inhibition); assay type: cell-based; conditions: for zone of inhibition: Table 1; for mean inhibitory zone size: Table 4
Phytophthora sojae = assay: as above; assay type: cell-based; conditions: for zone of inhibition: Table 1, pathogen isolate P52; for mean inhibitory zone size: Table 4, pathogen target isolate P52
[1] = system: Pythium ultimum var. sporangiferum; assay: as above; assay type: cell-based; conditions: for zone of inhibition: Table 1, pathogen isolate P58; for mean inhibitory zone size: Table 4, pathogen target isolate P58
F. culmorum = assay: as above; assay type: cell-based; conditions: Table 1; pathogen isolate P61
Fusarium virguliforme = assay: as above; assay type: cell-based; conditions: Table 4
[2] = system: clinical antimicrobials (antibiotic discs); assay: Antibiotic disc resistance/susceptibility assay of microbial isolates; assay type: cell-based
[3] = system: GS1, PS1 and PS3 (overlaid isolates); assay: Mutual inhibition activity among GS1, PS1 and PS3; assay type: cell-based; conditions: for inhibition zone size: mild inhibition
Method: Each of the microbes—GS1, PS1 and PS3—was grown in the presence of every other isolate (i.e., GS1 with PS1; GS1 with PS3; and PS1 with PS3). Briefly, isolates GS1, PS1 and PS3 were dotted onto the center of individual petri dishes and allowed to grow for 3 days. Dotted isolates were then killed by placing petri dishes over a chloroform-filled watch glass in a safety cabinet for one hour. Subsequently, overlays of the other two isolates spread across the entire petri dish surface. In this way, each isolate was tested as a potential inhibitor (dotted isolates) in combination with every isolate as a target (overlaid isolates). The growth of the microbial isolates was evaluated for the presence or absence of zones of inhibition at the interphase between the bacterial isolates. […] Results from this analysis show the potential for isolates to coexist without inhibiting one another.

potato scab = assay: Potato field trials: percent scab control; assay type: in vivo; parameters: concentration or dose not given beside the values
[4] = system: GS1 and PS3 (inhibition zones on Bacillus lawns); assay: Antimicrobial signaling/responsiveness among GS1, PS1, PS3; assay type: cell-based; conditions: increased inhibition zones around GS1 and PS3 vs single inoculant controls
[5] = system: random collection of Streptomyces from field soils; assay: Enhancement of antibiotic production in field-soil Streptomyces; assay type: cell-based

## Brevibacillus laterosporus [PS3]
Rhizoctonia solani
  zone of inhibition: 12.25 mm
Rhizoctonia solani; pathogen target isolate P5
  mean inhibitory zone size: 3.25 mm
Rhizoctonia solani; pathogen target isolate P6
  mean inhibitory zone size: 1.7875 mm
Rhizoctonia solani; pathogen target isolate P12
  mean inhibitory zone size: 1.5 mm
Sclerotinia sclerotiorum
  zone of inhibition: 11.48 mm
Sclerotinia sclerotiorum; pathogen target isolate P16
  mean inhibitory zone size: 4.517 mm
Sclerotinia sclerotiorum; pathogen target isolate P17
  mean inhibitory zone size: 5.567 mm
Sclerotinia sclerotiorum; pathogen target isolate P18
  mean inhibitory zone size: 4.975 mm
Sclerotinia sclerotiorum; pathogen target isolate P19
  mean inhibitory zone size: 5.8 mm
Fusarium oxysporum; pathogen isolate P27
  zone of inhibition: 0 mm
Fusarium oxysporum; pathogen isolate P29
  zone of inhibition: 0 mm
Fusarium oxysporum; pathogen target isolate P25
  mean inhibitory zone size: 3.725 mm
Fusarium oxysporum; pathogen target isolate P26
  mean inhibitory zone size: 4.1 mm
Fusarium oxysporum; pathogen target isolate P28
  mean inhibitory zone size: 5.6 mm
Fusarium oxysporum; pathogen target isolate P29
  mean inhibitory zone size: 4.225 mm
Fusarium graminearum; pathogen isolate P31
  zone of inhibition: 10.35 mm
Fusarium graminearum; pathogen isolate P34
  zone of inhibition: 14.58 mm
Fusarium graminearum; pathogen target isolate P30
  pathogen suppression (symbol): +**
Fusarium graminearum; pathogen target isolate P31
  pathogen suppression (symbol): +
Fusarium graminearum; pathogen target isolate P32
  pathogen suppression (symbol): +
Fusarium graminearum; pathogen target isolate P33
  pathogen suppression (symbol): +
Fusarium graminearum; pathogen target isolate P34
  pathogen suppression (symbol): +
Fusarium graminearum; pathogen target isolate P35
  pathogen suppression (symbol): +
Phytophthora medicaginis; pathogen isolate P43
  zone of inhibition: 12.55 mm
Phytophthora medicaginis; pathogen isolate P44
  zone of inhibition: 6.53 mm
Phytophthora medicaginis; pathogen target isolate P43
  mean inhibitory zone size: 5.6 mm
Phytophthora medicaginis; pathogen target isolate P44
  mean inhibitory zone size: 9.125 mm
Phytophthora sojae
  zone of inhibition: 0 mm
  mean inhibitory zone size: 10.3 mm
[1]
  zone of inhibition: 3.73 mm
  mean inhibitory zone size: 6.6 mm
F. culmorum
  zone of inhibition: 5.48 mm
Fusarium virguliforme; pathogen target isolate P20
  mean inhibitory zone size: 5.2 mm
Fusarium virguliforme; pathogen target isolate P21
  mean inhibitory zone size: 9.5 mm
Fusarium virguliforme; pathogen target isolate P22
  mean inhibitory zone size: 8.975 mm
Fusarium virguliforme; pathogen target isolate P23
  mean inhibitory zone size: 6.175 mm
[2]; Amoxicillin Clavulanate
  Antibiotic resistance characteristics: MR (MR-moderately resistant (1-5 mm))
[2]; Chloramphenicol
  Antibiotic resistance characteristics: MS (MS-moderately susceptible (6-10 mm))
[2]; Erythromycin
  Antibiotic resistance characteristics: S (S-susceptible (>10 mm))
[2]; Kanamycin
  Antibiotic resistance characteristics: S (S-susceptible (>10 mm))
[2]; Novobiocin 5
  Antibiotic resistance characteristics: S (S-susceptible (>10 mm))
[2]; Novobiocin 30
  Antibiotic resistance characteristics: S (S-susceptible (>10 mm))
[2]; Rifampin
  Antibiotic resistance characteristics: MR (MR-moderately resistant (1-5 mm))
[2]; Streptomycin
  Antibiotic resistance characteristics: S (S-susceptible (>10 mm))
[2]; Tetracycline
  Antibiotic resistance characteristics: MR (MR-moderately resistant (1-5 mm))
[2]; Vancomycin 5
  Antibiotic resistance characteristics: MS (MS-moderately susceptible (6-10 mm))
[2]; Vancomycin 30
  Antibiotic resistance characteristics: S (S-susceptible (>10 mm))
[3]
  inhibition of the other members of the combination: Neither isolate PS3 nor GS3 inhibit
Potato scab; experiment BPP, disease on non-inoculated tubers 22.2
  Percent Control (reduction in scab severity vs non-inoculated plots): 27%
Potato scab; experiment BSP, disease on non-inoculated tubers 24.3
  Percent Control (reduction in scab severity vs non-inoculated plots): 40%
Potato scab; experiment BWP, disease on non-inoculated tubers 26.7
  Percent Control (reduction in scab severity vs non-inoculated plots): 30%
Potato scab; experiment RPP, disease on non-inoculated tubers 15.6
  Percent Control (reduction in scab severity vs non-inoculated plots): 23%
Potato scab; experiment RSCRG1, disease on non-inoculated tubers 28.1
  Percent Control (reduction in scab severity vs non-inoculated plots): 34%
Potato scab; experiment RSP, disease on non-inoculated tubers 8.8
  Percent Control (reduction in scab severity vs non-inoculated plots): 42%

## Streptomyces sp. 3211.1 [PS1]
Rhizoctonia solani
  zone of inhibition: 0 mm
Rhizoctonia solani; pathogen target isolate P5
  mean inhibitory zone size: 0 mm
Rhizoctonia solani; pathogen target isolate P6
  mean inhibitory zone size: 0 mm
Rhizoctonia solani; pathogen target isolate P12
  mean inhibitory zone size: 0 mm
Sclerotinia sclerotiorum
  zone of inhibition: 0 mm
Sclerotinia sclerotiorum; pathogen target isolate P17
  mean inhibitory zone size: 12.8 mm
Sclerotinia sclerotiorum; pathogen target isolate P18
  mean inhibitory zone size: 3.25 mm
Sclerotinia sclerotiorum; pathogen target isolate P19
  mean inhibitory zone size: 0 mm
Fusarium oxysporum; pathogen isolate P27
  zone of inhibition: 0 mm
Fusarium oxysporum; pathogen isolate P29
  zone of inhibition: 0 mm
Fusarium oxysporum; pathogen target isolate P25
  mean inhibitory zone size: 0 mm
Fusarium oxysporum; pathogen target isolate P26
  mean inhibitory zone size: 0 mm
Fusarium oxysporum; pathogen target isolate P28
  mean inhibitory zone size: 0 mm
Fusarium oxysporum; pathogen target isolate P29
  mean inhibitory zone size: 0 mm
Fusarium graminearum; pathogen isolate P31
  zone of inhibition: 3.05 mm
Fusarium graminearum; pathogen isolate P34
  zone of inhibition: 0 mm
Fusarium graminearum; pathogen target isolate P30
  mean inhibitory zone size: 0 mm
Fusarium graminearum; pathogen target isolate P31
  mean inhibitory zone size: 3.05 mm
Fusarium graminearum; pathogen target isolate P32
  mean inhibitory zone size: 0 mm
Fusarium graminearum; pathogen target isolate P33
  mean inhibitory zone size: 0 mm
Fusarium graminearum; pathogen target isolate P34
  mean inhibitory zone size: 0 mm
Fusarium graminearum; pathogen target isolate P35
  mean inhibitory zone size: 0 mm
Phytophthora medicaginis; pathogen isolate P43
  zone of inhibition: 0 mm
Phytophthora medicaginis; pathogen isolate P44
  zone of inhibition: 0 mm
Phytophthora medicaginis; pathogen target isolate P43
  mean inhibitory zone size: 0 mm
Phytophthora medicaginis; pathogen target isolate P44
  mean inhibitory zone size: 0 mm
Phytophthora sojae
  zone of inhibition: 0 mm
  mean inhibitory zone size: 0 mm
[1]
  zone of inhibition: 0 mm
  mean inhibitory zone size: 0 mm
F. culmorum
  zone of inhibition: 0 mm
Fusarium virguliforme; pathogen target isolate P20
  mean inhibitory zone size: 0 mm
Fusarium virguliforme; pathogen target isolate P21
  mean inhibitory zone size: 0 mm
Fusarium virguliforme; pathogen target isolate P22
  mean inhibitory zone size: 0 mm
Fusarium virguliforme; pathogen target isolate P23
  mean inhibitory zone size: 3.58 mm
[2]; Amoxicillin Clavulanate
  Antibiotic resistance characteristics: MR (MR-moderately resistant (1-5 mm))
[2]; Chloramphenicol
  Antibiotic resistance characteristics: R (R-resistant (0 inhibition zone))
[2]; Erythromycin
  Antibiotic resistance characteristics: MR (MR-moderately resistant (1-5 mm))
[2]; Kanamycin
  Antibiotic resistance characteristics: S (S-susceptible (>10 mm))
[2]; Novobiocin 5
  Antibiotic resistance characteristics: MR (MR-moderately resistant (1-5 mm))
[2]; Novobiocin 30
  Antibiotic resistance characteristics: MS (MS-moderately susceptible (6-10 mm))
[2]; Penicillin
  Antibiotic resistance characteristics: R (R-resistant (0 inhibition zone))
[2]; Rifampin
  Antibiotic resistance characteristics: MR (MR-moderately resistant (1-5 mm))
[2]; Streptomycin
  Antibiotic resistance characteristics: MS (MS-moderately susceptible (6-10 mm))
[2]; Tetracycline
  Antibiotic resistance characteristics: MR (MR-moderately resistant (1-5 mm))
[2]; Vancomycin 5
  Antibiotic resistance characteristics: MS (MS-moderately susceptible (6-10 mm))
[2]; Vancomycin 30
  Antibiotic resistance characteristics: MS (MS-moderately susceptible (6-10 mm))
[3]; against GS1
  inhibition zone size: < 5 mm
[3]; against GS3 (so in the source)
  inhibition zone size: < 5 mm
[4]
  effect on antibiotic production by the two other isolates: enhance antibiotic production
[5]
  more effective than other isolates in enhancing antibiotic production: ~50%
  share of a random collection of Streptomyces whose antibiotic production is enhanced: 30%
